Test results: patent US8507724B2 (priority 2008, dated 2013)
Where “and” joins values, the source holds several entries; their conditions need not be identical. Equal entries are not always repeated. Where two headings read alike, the source gives them in different places.

Test: in vivo
Assay type: in vivo
Settings: rat
Procedure: […] Whole blood samples were taken from a lateral tail vein for plasma separation at time points 0 min, 30 min, 1 h, 2 h and 4 h after p.o. dosing; and 0 min, 15 min, 30 min, 1 h, and 2 h after i.v. dosing, while the terminal samples at time point 6 h after dosing (p.o and Lv.) were taken by cardiac puncture. All time points were taken from a single rat, and all experiments were carried out in triplicate.
The samples were thawn at room temperature and prepared by protein precipitation with ratio 1:2 of plasma and acetonitrile and were centrifuged 10 minutes at 16 100×g (Eppendorf 5415D, Eppendorf AG, Hamburg, Germany) before injection to UPLCIMSMS system. The standard samples were prepared similarly, after spiking blank plasma samples to 0.5, 2, 5, 10, 20, 50, 200, 500, 1000 and 2000 ng/ml of the analyte compounds.
The pharmacokinetic parameters for study compounds were calculated by WinNonlin Pro (Pharsight Corp, CA) using standard noncompartmental methods. The volume of distribution (Vd) was based on the terminal phase. The elimination phase half-life (t1/2) was calculated by least-squares regression analysis of the terminal linear part of the log concentration-time curve. The area under the plasma concentration-time curve (AUC) was determined by use of the linear trapezoidal rule up to the last measurable concentration and thereafter by extrapolation of the terminal elimination phase to infinity. The area under the plasma concentration-time curve without terminal extrapolation is reported as AUC 0-6 h. The mean residence time (MRT) representing the average amount of time a compound remains in a compartment or system was calculated extrapolating the drug concentration profile to infinity. The maximum plasma concentration (cmax) and the time to cmax (tmax) were derived directly from the plasma concentration data. The tentative oral bioavailability (F) was calculated by dividing the AUC after p.o. administration by the AUC after i.v. administration taking into account the differences in dose, i.e. F=AUC(p.o.)/Dose(p.o.)/AUC(i.v)/[…], and reported as percentages (%).
A Waters Acquity chromatographic system (Waters Corp., Milford, Mass., USA) with autosampler, vacuum degasser and column oven was used. The analytical column used for all compounds was a Waters BEH ShieldRP18, (2.1×50 mm, 1.7 μm, Waters Corp, Milford, Mass., USA) together with an on-line filter. The eluents were 0.1% acetic acid (A, pH 3.2) and acetonitrile (B). A linear gradient elution from 5% B to 35% B in 0-2 minutes, from 35% B to 85% B in 2.0-3.0 min was employed, followed by 1 min isocratic elution with […] and column equilibration. The flow rate was 0.5 ml/min and the column oven temperature was 35° C. LC/MS/MS/data was acquired with a Micromass Quattro Premier triple quadrupole mass spectrometer equipped with a LockSpray electrospray ionization source. A negative ion mode ionisation was used. The multiple reaction monitoring (MRM) mode of detection was used. The mass spectrometer and UPLC system were operated under Micromass MassLynx 4.1 software. Complete LC/MS/MS parameters are presented in Appendix I.
Detection/quantitation limits between 2 ng/ml and 10 ng/ml in plasma were obtained for each compound. Calibration curves for quantification were generated by fitting the ratio of the external standard peak areas as a function of the concentration, excluding the point of origin and using 1/x weighting and linear or quadratic fitting. The ranges up to 2000 ng/ml were fitted for calibration curves. […] The overall precisions 12.0-17.0% were calculated from the standard samples (two injection/concentration), using Snedecor equation S=(Σd^2/2n)^0.5, in which S=precision, d is the difference between duplicates expressed as % of the mean value, and N is the number of standard concentration. The concentrations of each study compound in the samples are shown in the Appendices IV-VI.

[1] = 2 mg/kg i.v., individual animals, 2 mg/kg
[2] = in vivo, iv, 2 mg/kg, 2 mg/kg i.v., individual animals, read-out: t1/2
[3] = in vivo, iv, 2 mg/kg, i.v. 2 mg/kg, mean n=3, read-out: t1/2
[4] = 20 mg/kg p.o., individual animals, 20 mg/kg

## CC(C)c1cc(-c2ccc(Cl)cc2)cc(C(C)C)c1O [4-(p-Cl—Ph)-propofol, 4-(para-Chlorophenyl)-propofol]
plasma, po, 20 mg/kg p.o. vs 2 mg/kg i.v., read-out: F (%) tentative oral bioavailability
  bioavailability: 0%
2 mg/kg i.v., individual animals
  tmax: 0.25 h
[1]
  AUC: 36.3 µg·min/mL and 40.8 µg·min/mL and 68.8 µg·min/mL
  CL/F: 55.1 mL/min/kg and 49.1 mL/min/kg and 29.1 mL/min/kg
  MRT: 1.51 h and 0.782 h
  cmax: 0.46 µg/mL and 0.78 µg/mL
  t1/2: 1.54 h and 1.78 h
i.v. 2 mg/kg, mean n=3
  ADC 0-6 h: 46.6 µg·min/mL
  AUC: 48.6 µg·min/mL
  CL/F: 44.4 mL/min/kg
i.v. dosing, compared to rat liver blood flow
  clearance (in words): in the range of hepatic blood flow
[2]
  half-life: 1.52 h
[3]
  half-life: 1.61 h
Iv (2 mg/kg), 15 min, individual animals, listed as CK2-3, 2 mg/kg
  concentration in plasma: 398 ng/mL and 456 ng/mL
Iv (2 mg/kg), 30 min, individual animals, listed as CK2-3, 2 mg/kg
  concentration in plasma: 123 ng/mL and 187 ng/mL and 307 ng/mL
Iv (2 mg/kg), 1 h, individual animals, listed as CK2-3, 2 mg/kg
  concentration in plasma: 149 ng/mL and 156 ng/mL
Iv (2 mg/kg), 2 h, individual animals, listed as CK2-3, 2 mg/kg
  concentration in plasma: 62.4 ng/mL and 74.2 ng/mL
Iv (2 mg/kg), 6 h, individual animals, listed as CK2-3, 2 mg/kg
  concentration in plasma: 14.6 ng/mL and 14.9 ng/mL
  detection in plasma after oral (p.o.) administration: detected in plasma only after i.v. administration
Listed as CK-2-3
  detection in plasma after oral (p.o.) administration: not detected
plasma, iv, 2 mg/kg, i.v. administration, read-out: half life (converted)
  half-life: ~1.5 h
plasma, iv, 2 mg/kg, iv (2 mg/kg), 15 min, individual animals
  concentration at 15 min: 784 ng/mL
plasma, iv, 2 mg/kg, iv (2 mg/kg), 1 h, individual animals
  concentration at 1 h: 79.7 ng/mL
plasma, iv, 2 mg/kg, iv (2 mg/kg), 2 h, individual animals
  concentration at 2 h: 63.9 ng/mL
plasma, iv, 2 mg/kg, iv (2 mg/kg), 6 h, individual animals
  concentration at 6 h: 13.1 ng/mL

## CC(C)c1cc(-c2ccc(Cl)c(F)c2)cc(C(C)C)c1O [p-(3-F,4-Cl—Ph)-propofol, Para-(3-Fluoro,4-chlorophenyl)-propofol]
[1]
  CL/F: 24.9 mL/min/kg and 30.4 mL/min/kg and 32.5 mL/min/kg
  t1/2: 1.53 h and 1.65 h
[4]
  CL/F: 153 mL/min/kg and 434 mL/min/kg and 105 mL/min/kg
  t1/2: 7.8 h and 18.5 h and 13.1 h
i.v. 2 mg/kg, mean n=3
  CL/F: 29.3 mL/min/kg
In vivo
  bioavailability: ~18%
In vivo, iv
  clearance (in words): intermediate
  half life (in words): intermediate
In vivo, iv, 2 mg/kg
  ADC 0-6 h: 64.1 µg·min/mL
  tmax: 0.25 h
[2]
  half-life: 1.36 h
[3]
  half-life: 1.52 h
In vivo, iv, 2 mg/kg, iv (2 mg/kg), 30 min, individual animals, read-out: concentration in plasma
  concentration at 30 min: 444 ng/mL
In vivo, iv, 2 mg/kg, iv (2 mg/kg), 1 h, individual animals, read-out: concentration in plasma
  concentration at 1 h: 316 ng/mL
In vivo, iv, 2 mg/kg, iv (2 mg/kg), 2 h, individual animals, read-out: concentration in plasma
  concentration at 2 h: 90.3 ng/mL
In vivo, iv, 2 mg/kg, iv (2 mg/kg), 6 h, individual animals, read-out: concentration in plasma
  concentration at 6 h: 24.1 ng/mL
In vivo, po, 20 mg/kg
  ADC 0-6 h: 34.6 µg·min/mL
  CL: 41.1 mL/min/kg
  Tmax: 0.5 h
  Vd: 54.4 L/kg
  bioavailability: 17.8%
  tmax: 0.5 h
In vivo, po, 20 mg/kg, p.o. 20 mg/kg, mean n=3
  Vd/F: 306 L/kg
In vivo, po, 20 mg/kg, p.o. 20 mg/kg, mean n=3, read-out: CL/F
  CL/F: 231 mL/min/kg
In vivo, po, 20 mg/kg, p.o. 20 mg/kg, mean n=3, read-out: t1/2
  half-life: 13.2 h
Iv (2 mg/kg), 15 min, individual animals, listed as CK2-9, 2 mg/kg
  concentration in plasma: 1100 ng/mL and 689 ng/mL and 535 ng/mL
Iv (2 mg/kg), 30 min, individual animals, listed as CK2-9, 2 mg/kg
  concentration in plasma: 499 ng/mL and 513 ng/mL
Iv (2 mg/kg), 1 h, individual animals, listed as CK2-9, 2 mg/kg
  concentration in plasma: 329 ng/mL and 297 ng/mL
Iv (2 mg/kg), 2 h, individual animals, listed as CK2-9, 2 mg/kg
  concentration in plasma: 74.0 ng/mL and 81.3 ng/mL
Iv (2 mg/kg), 6 h, individual animals, listed as CK2-9, 2 mg/kg
  concentration in plasma: 44.0 ng/mL and 46.6 ng/mL
  detection in plasma after oral (p.o.) administration: observed in plasma
Po (20 mg/kg), 30 min, individual animals, listed as CK2-9, 20 mg/kg
  concentration in plasma: 172 ng/mL and 213 ng/mL and 63.0 ng/mL
Po (20 mg/kg), 1 h, individual animals, listed as CK2-9, 20 mg/kg
  concentration in plasma: 182 ng/mL and 26.6 ng/mL and 121 ng/mL
Po (20 mg/kg), 2 h, individual animals, listed as CK2-9, 20 mg/kg
  concentration in plasma: 134 ng/mL and 26.2 ng/mL and 168 ng/mL
Po (20 mg/kg), 4 h, individual animals, listed as CK2-9, 20 mg/kg
  concentration in plasma: 21.5 ng/mL and 97.6 ng/mL
Po (20 mg/kg), 6 h, individual animals, listed as CK2-9, 20 mg/kg
  concentration in plasma: 121 ng/mL and 22.9 ng/mL and 128 ng/mL
